Assay results as given in patent US20070003987A1, “Screening method for substance binding to merozoite surface protein-1/42” (priority 2003, published 2007).

Assays:
[1] = test system: P. falciparum (FCB-1); assay: short-term in vitro invasion assay (newly invaded ring stages counted by microscopy); format: cell-based, Plasmodium falciparum
Procedure: Asexual blood stages of P. falciparum (FCB-1) were maintained at 37° C. in RPMI 1640/Albumax medium (Gibco) supplemented with 2 mM L-glutamine as previously described (Blackman, 1994 Methods Cell Biol. 45, 213-220). Cultures were gassed with 7% CO2, 5% O2 and 88% N2 and maintained by routine passage in fresh human erythrocytes. Parasites were synchronised by Percoll and sorbitol treatment (Holder & Freeman, 1982 J. Exp. Med. 156, 1528-1538); schizonts were purified by centrifugation over Percoll and then returned to culture in the presence of fresh erythrocytes. After 4 h, during which time released merozoites invaded erythrocytes, the cells were treated with 5% sorbitol for 10 min to lyse the residual schizonts, before returning the parasites to culture.
Compounds were tested for their ability to inhibit invasion in vitro, using two approaches: a short-term assay in which the number of newly invaded erythrocytes was counted using microscopy, and a growth assay measuring uptake of [^3H] hypoxanthine. In the short term-assay (described previously by Blackman et al, 1990 J. Exp. Med. 172, 379-382), compounds were incubated with purified P. falciparum schizonts at ^˜2% parasitaemia and ^˜2% haematocrit in triplicate cultures. After between 6 and 24 h, blood smears were stained with Giemsa's reagent and examined by microscopy. […]

[2] = biological target: T1, P. vivax MSP133 (Plasmodium vivax, UniProt Q02569, A1444G/T1362K/T1451N); assay: isothermal titration calorimetry; format: binding
T1 sequence (Q02569 1325-1618 T1362K/A1444G/T1451N): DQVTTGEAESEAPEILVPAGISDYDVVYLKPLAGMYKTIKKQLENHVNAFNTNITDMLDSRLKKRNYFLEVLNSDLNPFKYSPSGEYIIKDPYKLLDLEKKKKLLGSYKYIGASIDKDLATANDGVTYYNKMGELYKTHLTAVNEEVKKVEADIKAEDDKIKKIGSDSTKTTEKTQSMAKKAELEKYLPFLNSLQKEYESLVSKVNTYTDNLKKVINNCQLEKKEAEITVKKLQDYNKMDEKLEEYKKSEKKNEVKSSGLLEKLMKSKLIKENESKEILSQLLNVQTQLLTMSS
Procedure: P. vivax MSP133 was expressed using the P. vivax MSP142 clone, above, as a template for PCR, followed by ligation of the product into vector pET30Xa/LIC. The sequence runs from Asp 1325 to Ser 1618 (Accession number A39401) following the N-terminal purification tag. The vector was used to transform BL21(DE3)pLysS cells. For expression, a culture of the transformed cells was induced at an OD600 of 0.6-0.8 at 37° C. with 1 mM IPTG for 3 h. The cells were harvested by centrifugation and the cell pellet lysed using the Bugbuster protein extraction reagent (Novagen). The cell lysate was cleared by centrifugation and the supernatant loaded directly onto a Ni-NTA column. The column was washed with 10 volumes of 50 mM NaH2PO4, 300 mM NaCl, 10 mM imidazole, pH 8.0, then with 6 column volumes of the same buffer containing 30 mM imidazole, and finally eluted with 3 column volumes of the buffer with 250 mM imidazole. The eluted protein was then loaded directly onto a Superdex 200 (26/600) column (Amersham) equilibrated in 20 mM Tris-HCl, 250 mM NaCl, pH 8.0 and purified by gel filtration. The fractions containing MSP-133 were pooled and dialysed extensively with PBS.
In addition to the fluorimetry, isothermal titration calorimetry (ITC) was performed using a Microcal omega VP-ITC (MicroCal Inc., Northampton, Mass.). The proteins were dialyzed extensively against the ITC buffer (phosphate buffered saline, pH 7.4). All experiments were performed at 25° C. The cell, 1.425 ml, contained 30 μM MSP142 or MSP133 and these were titrated by injection of a total of 290 μl of 600 μM suramin. The heat of dilution of suramin into buffer was determined in control experiments. The data were fitted by least-squares methods using the evaluation software, Microcal Origin version 5.0 provided by the manufacturer. Each experiment was performed twice.

[3] = biological target: T2, MSP119 from P. falciparum (Plasmodium falciparum, UniProt P04933, S1528A); assay: NMR titration of 15N labelled MSP119 with suramin; format: binding
T2 construct: contained the 96 amino acid MSP119 fragment, preceded by a single His residue; N-terminal leader […]; (His6 + Factor Xa site); made in house; host or cells: Pichia pastoris (vector pPIC9K)
Description: Plasmodium falciparum MSP119 (Swiss-Prot 04933) was expressed from a synthetic gene optimised for Pichia pastoris expression (European Patent No. EP1180120). This construct, inserted at the SnaBI site of vector pPIC9K (Invitrogen), contained the N-terminal leader sequence YHHHHHHIEGRH preceding the MSP119 sequence. A point mutation (Ser3 to Ala) was also introduced to eliminate N-glycosylation at Asn1. Following purification of MSP119 as described previously (Morgan et al, 1999 J. Mol. Biol. 289, 113-122), the N-terminal tag was cleaved with Factor Xa (New England Biolabs) and MSP119 was purified by gel filtration (Superdex 200). The fmal product contained the 96 amino acid MSP119 fragment, preceded by a single His residue.
NMR experiments were carried out on Varian spectrometers operating at proton frequencies of 500, 600 and 800 MHz. Suramin (0.03-16.0 mM) ^1H spectra were recorded at 5 to 35° C. […] MSP119/suramin samples were examined with either unlablled or ^15N labelled MSP119 in 50 mM sodium phosphate and 100 mM NaCl in 90% H2O/10% D2O at pH 6.5 (pH values are pH meter readings uncorrected for deuterium isotope effects). […] 1D ^1H and 2D ^1H-^15N HSQC NMR spectra were recorded for each concentration of suramin. […]

For `Cc1ccc(C(=O)Nc2ccc(S(=O)(=O)O)c3cc(S(=O)(=O)O)cc(S(=O)(=O)O)c23)cc1NC(=O)c1cccc(NC(=O)Nc2cccc(C(=O)Nc3cc(C(=O)Nc4ccc(S(=O)(=O)O)c5cc(S(=O)(=O)O)cc(S(=O)(=O)O)c45)ccc3C)c2)c1` [suramin], the “inhibition of merozoite invasion of erythrocytes (microscopy, Giemsa)” value [1] was “inhibited merozoite invasion of erythrocytes”, the “inhibition of merozoite release from schizonts (microscopy)” value [1] was “did not inhibit merozoite release from schizonts” and the Kd [2] was 0.0015 ± 0.0005 mM. The “binding to MSP133 weaker than to MSP142” value ([2]; ITC) was 5 fold, the AH value ([2]; ITC, 25° C.) was 12 ± 1 kcal/mol and the Kd [3] was ~15 mM.
